# Data from patent US7271170B2, “Imidazo-pyrimidines and triazolo-pyrimidines: benzodiazepine receptor ligands” (Neurogen Corporation, priority 2003, dated 2007).
# pKd, pKi: −log10 of the molar value.
# Target: benzodiazepine site of the GABAA receptor
# Test: Ligand binding assay of Example 6 (3H-Ro15-1788 competition, purified rat cortical membranes)
# Settings: ligand binding assay of Example 6; Table 5 Ki
row,Structure (SMILES),pKi
1,"CCCc1c(Cn2ccnc2-c2cccc(F)n2)ncn2nc(C(C)(C)O)nc12 [Compound 252, 2-(7-{[2-(6-fluoropyridin-2-yl)-1H-imidazol-1-yl]methyl}-8-propyl[1,2,4]triazolo[1,5-c]pyrimidin-2-yl)propan-2-ol]",> 6.00
2,"CCCc1c(Cn2ccnc2-c2ncccc2F)ncn2nc(C3CCCO3)nc12 (stereo not shown) [Compound 254, 7-{[2-(3-fluoropyridin-2-yl)-1H-imidazol-1-yl]methyl}-8-propyl-2-(tetrahydrofuran-2-yl)[1,2,4]triazolo[1,5-c]pyrimidine]",> 6.00
3,"CCCc1c(Cn2ccnc2-c2ncccc2F)ncn2nc(C(=O)OC)nc12 [Compound 251, methyl 7-{[2-(3-fluoropyridin-2-yl)-1H-imidazol-1-yl]methyl}-8-propyl[1,2,4]triazolo[1,5-c]pyrimidine-2-carboxylate]",> 6.00
4,"CCCc1c(Cn2ccnc2-c2ncccc2F)ncn2nc(OC)nc12 [Compound 246, 7-{[2-(3-fluoropyridin-2-yl)-1H-imidazol-1-yl]methyl}-2-methoxy-8-propyl[1,2,4]triazolo[1,5-c]pyrimidine]",> 6.00
5,"CCCc1c(Cn2ccnc2-c2ncccc2F)ncn2nc(C(N)=O)nc12 [Compound 239, 7-[2-(3-Fluoro-pyridin-2-yl)-imidazol-1-ylmethyl]-8-propyl-[1,2,4]triazolo[1,5-c]pyrimidine-2-carboxylic acidamide]",> 6.00
6,"CCCc1c(Cn2ccnc2-c2ncccc2F)ncn2nc(COC(C)C)nc12 [Compound 263, 7-{[2-(3-fluoropyridin-2-yl)-1H-imidazol-1-yl]methyl}-2-(isopropoxymethyl)-8-propyl[1,2,4]triazolo[1,5-c]pyrimidine]",> 6.00
7,"CCCc1c(Cn2ccnc2-c2ncccc2F)ncn2nc(C(=O)OCC)nc12 [Compound 238, 7-[2-(3-Fluoro-pyridin-2-yl)-imidazol-1-ylmethyl]-8-propyl-[1,2,4]triazolo[1,5-c]pyrimidine-2-carboxylic acidethyl ester]",> 6.00
8,"CCCc1c(Cn2ccnc2-c2ncccc2F)ncn2nc(N)nc12 [Compound 248, 7-{[2-(3-fluoropyridin-2-yl)-1H-imidazol-1-yl]methyl}-8-propyl[1,2,4]triazolo[1,5-c]pyrimidin-2-amine]",> 6.00
9,"Cc1nc2c(CCCO)c(Cn3ccnc3-c3ncccc3F)ncn2n1 [Compound 228, 3-{7-[2-(3-Fluoro-pyridin-2-yl)-imidazol-1-ylmethyl]-2-methyl-[1,2,4]triazolo[1,5-c]pyrimidin-8-yl}-propan-1-ol]",> 6.00
10,"Cc1nc2c(CCF)c(Cn3ccnc3-c3ncccc3F)ncn2n1 [Compound 229, 8-(2-Fluoro-ethyl)-7-[2-(3-fluoro-pyridin-2-yl)-imidazol-1-ylmethyl]-2-methyl-[1,2,4]triazolo[1,5-c]pyrimidine]",> 6.00
11,"CCCc1c(Cn2ccnc2-c2cccc(F)n2)ncn2nc(COCC)nc12 [Compound 250, 2-(ethoxymethyl)-7-{[2-(6-fluoropyridin-2-yl)-1H-imidazol-1-yl]methyl}-8-propyl[1,2,4]triazolo[1,5-c]pyrimidine]",> 6.00
12,"CCCc1c(Cn2ccnc2-c2ncccc2F)ncn2nc(CO)nc12 [Compound 223, {7-[2-(3-Fluoro-pyridin-2-yl)-imidazol-1-ylmethyl]-8-propyl-[1,2,4]triazolo[1,5-c]pyrimidin-2-yl}-methanol]",> 6.00

# Same assay, conditions: radioligand; previously determined, used in Cheng-Prusoff equation; read-out: Kd, binding dissociation constant of 3H-Ro15-1788
row,Structure (SMILES),pKd
1,"CCOC(=O)c1ncn2c1CN(C)C(=O)c1cc(F)ccc1-2 [^3H-Ro15-1788, reference compound]",9.00
